This passage reports Ki, Ratio Ki and IC50 results from ChEMBL document CHEMBL1212898 (J Med Chem, 2010).

The target in assay [1] is Sodium-dependent serotonin transporter (Rattus norvegicus, UniProt P31652). The assay is described as follows: Displacement of [3H]citalopram from SERT in rat brain stem by scintillation counting. The assay is classed as tissue-based. In general terms: In a radioligand displacement assay an active substance lowers the binding of a labelled ligand.
The target of another assay is Transporter (Rattus norvegicus, UniProt Q63380). Put plainly: Displacement of [3H]nisoxetine from NET in rat frontal cortex by scintillation counting. In kind it is tissue-based.
The target in assay [2] is Sodium-dependent dopamine transporter (Rattus norvegicus, UniProt P23977). The assay is described as follows: Displacement of [3H]WIN-35428 from DAT in rat caudate-putamen by scintillation counting. In kind it is tissue-based.
Assay [3] is filed under the species Rattus norvegicus. The assay is described as follows: Selectivity ratio of Ki for NET in rat brain frontal cortex to Ki for SERT in rat brain stem. In kind it is tissue-based.
The species entered for assay [4] is Rattus norvegicus. The assay is described as follows: Selectivity ratio of Ki for DAT in rat caudate-putamen to Ki for SERT in rat brain stem. The assay is classed as tissue-based.
Assay [5] is described as follows: Displacement of [3H]leucine from Leucine transporter.

Transporter, sequence (Q63380 whole entry): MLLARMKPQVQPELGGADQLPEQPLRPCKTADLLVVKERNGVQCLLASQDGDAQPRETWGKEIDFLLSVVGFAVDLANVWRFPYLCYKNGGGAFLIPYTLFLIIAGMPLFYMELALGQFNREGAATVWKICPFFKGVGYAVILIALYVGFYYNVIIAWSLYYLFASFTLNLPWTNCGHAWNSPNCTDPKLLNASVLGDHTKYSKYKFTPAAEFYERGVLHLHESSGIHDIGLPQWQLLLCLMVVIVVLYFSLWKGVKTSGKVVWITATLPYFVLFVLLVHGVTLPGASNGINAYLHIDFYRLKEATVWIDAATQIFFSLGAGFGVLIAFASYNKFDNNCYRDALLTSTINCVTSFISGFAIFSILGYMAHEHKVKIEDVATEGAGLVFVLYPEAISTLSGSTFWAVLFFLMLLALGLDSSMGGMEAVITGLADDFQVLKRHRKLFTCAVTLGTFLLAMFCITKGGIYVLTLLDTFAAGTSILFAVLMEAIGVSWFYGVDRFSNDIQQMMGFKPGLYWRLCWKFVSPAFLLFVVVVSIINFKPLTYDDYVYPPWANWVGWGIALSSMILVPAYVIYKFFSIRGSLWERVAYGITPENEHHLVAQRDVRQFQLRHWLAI
Sodium-dependent dopamine transporter, sequence (P23977 whole entry): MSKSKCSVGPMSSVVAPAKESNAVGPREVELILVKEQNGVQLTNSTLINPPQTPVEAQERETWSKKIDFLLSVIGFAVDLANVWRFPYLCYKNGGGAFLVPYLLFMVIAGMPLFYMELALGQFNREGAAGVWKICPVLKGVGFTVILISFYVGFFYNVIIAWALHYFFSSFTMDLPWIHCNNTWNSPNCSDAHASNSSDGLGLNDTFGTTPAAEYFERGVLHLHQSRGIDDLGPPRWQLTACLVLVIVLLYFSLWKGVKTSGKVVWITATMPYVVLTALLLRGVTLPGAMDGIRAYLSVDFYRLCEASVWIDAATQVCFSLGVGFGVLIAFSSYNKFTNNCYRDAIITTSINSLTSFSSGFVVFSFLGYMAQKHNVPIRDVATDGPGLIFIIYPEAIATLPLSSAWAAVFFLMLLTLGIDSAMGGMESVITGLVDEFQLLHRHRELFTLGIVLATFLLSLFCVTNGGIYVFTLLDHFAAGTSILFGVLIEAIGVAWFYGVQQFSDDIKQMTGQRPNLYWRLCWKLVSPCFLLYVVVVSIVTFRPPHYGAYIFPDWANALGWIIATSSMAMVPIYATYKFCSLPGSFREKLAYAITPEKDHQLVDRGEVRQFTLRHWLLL
Sodium-dependent serotonin transporter, sequence (P31652 whole entry): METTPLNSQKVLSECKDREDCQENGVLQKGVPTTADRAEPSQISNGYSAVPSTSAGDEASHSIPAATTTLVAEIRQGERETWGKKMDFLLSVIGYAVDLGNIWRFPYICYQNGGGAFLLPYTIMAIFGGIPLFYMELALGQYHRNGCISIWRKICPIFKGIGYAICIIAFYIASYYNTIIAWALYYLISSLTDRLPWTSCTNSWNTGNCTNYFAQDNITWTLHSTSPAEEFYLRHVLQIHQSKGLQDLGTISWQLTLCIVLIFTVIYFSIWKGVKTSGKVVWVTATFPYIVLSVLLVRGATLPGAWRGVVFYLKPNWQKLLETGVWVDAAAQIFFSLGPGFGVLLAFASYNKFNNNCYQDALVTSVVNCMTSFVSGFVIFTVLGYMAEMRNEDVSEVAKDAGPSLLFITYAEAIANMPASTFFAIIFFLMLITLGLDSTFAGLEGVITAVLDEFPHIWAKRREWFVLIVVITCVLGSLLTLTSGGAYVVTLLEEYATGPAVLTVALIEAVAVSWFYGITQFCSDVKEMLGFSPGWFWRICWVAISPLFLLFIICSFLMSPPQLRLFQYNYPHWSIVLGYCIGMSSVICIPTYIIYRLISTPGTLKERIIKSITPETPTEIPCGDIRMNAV

Usually Ki stands for a measure of affinity in units of concentration, obtained from inhibition or displacement. Higher therefore signals lower affinity. In the case of `CN(C)CCCC1(c2ccc(F)cc2)OCc2cc(-c3cccc(C#N)c3)ccc21` (configuration not stated), the figures for the inhibition constant (Ki) (in assay [1]; at Transporter; in assay [2]) were 0.0067 µM, 4.98 µM and 0.737 µM, respectively. Moreover, the figures for the Ratio Ki in the assay filed under Rattus norvegicus [3] and in the assay filed under Rattus norvegicus [4] were 743 and 110, respectively.
As to `CN(C)CCCC1(c2ccc(F)cc2)OCc2cc(I)ccc21` (configuration not stated), the inhibition constant (Ki) in assay [1] was determined as 0.00142 µM; in assay [2], 1.35 µM.
Regarding `CN(C)CCCC1(c2ccc(F)cc2)OCc2cc(/C=C/c3ccc(Cl)cc3)ccc21` (configuration not stated), the Ki was determined as 0.0336 µM in assay [1], 25.1 µM on Transporter and 2 µM in assay [2]. Moreover, the Ratio Ki in the assay listed under Rattus norvegicus [3] was 747; in the assay filed under Rattus norvegicus [4], 60.
Taken in the same sequence, the figures for `CN(C)CCCC1(c2ccc(F)cc2)OCc2c(Br)cccc21` (configuration not stated) were 0.00387 µM, 6.17 µM, 0.216 µM, 1590 and 56.
Regarding `CN(C)CCCC1(c2ccc(F)cc2)OCc2cc(Br)ccc21` (racemic), the inhibition constant Ki in assay [1] turned out to be 0.00104 µM; at Transporter, 28.4 µM.
On to `CN(C)CCCC1(c2ccc(F)cc2)OCc2cc(CCc3ccccc3)ccc21` (configuration not stated), for which the Ki in assay [1] is 0.0381 µM; at Transporter it was 4.63 µM.
Turning to `CN(C)CCC[C@@]1(c2ccc(F)cc2)OCc2cc(/C=C/c3ccccc3)ccc21`, the Ki in assay [1] is 0.0106 µM; at Transporter it was 16.8 µM; in assay [2] it was 1.81 µM. Besides, the Ratio Ki in the assay listed under Rattus norvegicus [3] came out at 1590; in the assay filed under Rattus norvegicus [4] it was 171.
With `COc1cccc(-c2ccc3c(c2)COC3(CCCN(C)C)c2ccc(F)cc2)c1` (configuration not stated), the Ki is 0.0092 µM in assay [1] and 2.61 µM on Transporter.
For `CN(C)CCCC1(c2ccc(F)cc2)OCc2cc(-c3cc(F)cc(F)c3)ccc21` (configuration not stated) the same measures were 0.108 µM and 2 µM.
Turning to `CN(C)CCCC1(c2ccc(F)cc2)OCc2c(-c3cccc(F)c3)cccc21` (configuration not stated), the Ki in assay [1] stood at 0.00822 µM; at Transporter, 7.67 µM; in assay [2], 0.49 µM. Moreover, the figures for the Ratio Ki in the assay listed under Rattus norvegicus [3] and in the assay listed under Rattus norvegicus [4] were 933 and 60, respectively.
For `CN(C)CCCC1(c2ccc(F)cc2)OCc2cc(-c3ccccc3)ccc21` (configuration not stated) the same measures were 0.04 µM, 16.9 µM, 1.8 µM, 423 and 45.
What is called IC50 is the midpoint of a concentration-inhibition curve. Low readings indicate greater potency in that assay, high ones weaker potency in that assay. Regarding `CN(C)CCC[C@]1(c2ccc(F)cc2)OCc2cc(Br)ccc21`, the Ki in assay [1] amounted to 0.0236 µM; at Transporter, 21.6 µM; in assay [2], 1.35 µM. Besides, the Ratio Ki in the assay listed under Rattus norvegicus [3] is 915; in the assay listed under Rattus norvegicus [4], 57. This molecule also registered an IC50 in assay [5] of 420 µM.
On to `CN(C)CCCC1(c2ccc(F)cc2)OCc2cc(-c3cccc(Cl)c3)ccc21` (configuration not stated), for which the Ki in assay [1] was found to be 0.0612 µM; at Transporter, 5.71 µM; in assay [2], 1.39 µM. In addition, the Ratio Ki was determined as 93 in the assay filed under Rattus norvegicus [3] and 23 in the assay filed under Rattus norvegicus [4].
For `CN(C)CCC[C@]1(c2ccc(F)cc2)OCc2cc(/C=C/c3ccccc3)ccc21` the same measures were 0.113 µM, 5.19 µM, 0.541 µM, 46 and 4.79.
As for `CN(C)CCCC1(c2ccc(F)cc2)OCc2cc(-c3cccc(N)c3)ccc21` (configuration not stated), the Ki in assay [1] came to 0.0104 µM; in assay [2] it was 1.69 µM.
With `CN(C)CCC[C@@]1(c2ccc(F)cc2)OCc2cc(Br)ccc21`, the results for the Ki (in assay [1]; on Transporter; in assay [2]) were 0.00092 µM, 8.41 µM and 2.25 µM, respectively. Besides, the Ratio Ki was 9140 in the assay filed under Rattus norvegicus [3] and 2450 in the assay listed under Rattus norvegicus [4]. The molecule further showed an IC50 in assay [5] of 400 µM.
For `CN(C)CCCC1(c2ccc(F)cc2)OCc2c(-c3ccccc3)cccc21` (configuration not stated), the inhibition constant Ki in assay [1] was 0.00507 µM; at Transporter it was 7.16 µM; in assay [2] it was 0.542 µM. The values for the Ratio Ki in the assay filed under Rattus norvegicus [3] and in the assay filed under Rattus norvegicus [4] were 1410 and 107, respectively.
For the molecule `CN(C)CCCC1(c2ccc(F)cc2)OCc2cc(-c3cccc(F)c3)ccc21` (configuration not stated), the figures for the Ki (in assay [1]; at Transporter) were 0.0218 µM and 4.2 µM, respectively.
Regarding `CN(C)CCCC1(c2ccc(F)cc2)OCc2cc(/C=C/c3ccccc3)ccc21` (racemic), the Ki in assay [1] was 0.00932 µM; at Transporter it was 11.4 µM; in assay [2] it was 0.836 µM. The Ratio Ki in the assay listed under Rattus norvegicus [3] turned out to be 1220; in the assay filed under Rattus norvegicus [4], 90.
In turn, `CN(C)CCC[C@@]1(c2ccc(F)cc2)OCc2cc(C#N)ccc21` [ESCITALOPRAM] had an IC50 in assay [5] of 1560 µM.
As to `CN(C)CCCC1(c2ccc(F)cc2)OCc2cc(-c3ccc(Cl)c(Cl)c3)ccc21` (configuration not stated), the Ki in assay [1] was 0.143 µM; on Transporter, 12.7 µM; in assay [2], 2.51 µM. In addition, the Ratio Ki in the assay listed under Rattus norvegicus [3] stood at 89; in the assay listed under Rattus norvegicus [4], 18.
Regarding `CN(C)CCCC1(c2ccc(F)cc2)OCc2c(/C=C/c3ccccc3)cccc21` (configuration not stated), the Ki in assay [1] is 0.0464 µM; on Transporter, 11.9 µM; in assay [2] it was 1.14 µM. Also, the Ratio Ki in the assay listed under Rattus norvegicus [3] was 256; in the assay listed under Rattus norvegicus [4], 25.
